Key:
MAP kinase = assay: Activation (phosphorylation) of MAP kinase by Western immunoblotting in cultured cerebral cortex nerve cells; type: cell-based, rat; conditions: for Ratio of pMAPK to MAPK: Test Example 6, relative to control (0 μg/mL = 1.0)
Procedure: With regard to the compound 1 ((E)-2-(dimethylamino)-ethyl dec-2-enoate), activation of MAP kinase was measured as follows by a Western immunoblotting.
Nerve cells were dispersed from cerebral cortex of a fetal rat of 17 days age and said nerve cells were cultured for one day in a Dulbecco-modified Eagle medium (DMEM) containing 5% fetal bovine serum. The culture medium was exchanged with a serum-free medium (B27 supplement-added Neurobasal; Invitrogen) and the nerve cells were cultured at the density of 20,000 to 40,000 cells per cm^2 in a culture dish coated with polyornithine.
After three days, the compound 1 was added and the culture was continued for 30 minutes. After that, the cells were recovered on ice using a solution containing a phosphatase inhibitor where Tris-HCl buffer was a base. Protein concentration of the resulting cell extract was quantified using a BCA Protein Assay Kit (Takara Bio KK) and a certine amount of protein (3 μg for the measurement of MAP kinase and 5 μg for the measurement of phosphorylated MAP kinase) was subjected to polyacrylamide gel electrophoresis. The protein was transcribed from the gel after the electrophoresis to a PVDF membrane and a Western immunoblotting was carried out using each of an anti-MAP kinase antibody (Cell Signaling Technology) and an anti-phosphorylated MAP kinase antibody (Cell Signaling Technology) of the primary antibody.
After that, the reaction with an alkaline phosphatase-labeled anti-rabbit IgG antibody (Promega) of the secondary antibody was carried out so that the enzymatic activity was colorized whereupon the MAP kinase and the phosphorylated MAP kinase were measured.
Incidentally, the compound 1 was adjusted to the concentrations of 10 μg/ml, 30 μg/ml, 100 μg/ml and 300 μg/ml by dissolving in 0.1% DMSO. With regard to the control, 0.1% DMSO was added.
Intensity of the concentration of the above-obtained band of the gel subjected to electrophoresis was calculated and quantified using Image J (K. K. Bioarts). The numerical value for the MAP kinase using the compound 1 was divided by the numerical value for the MAP kinase of the control and, further, the numerical value for the phosphorylated MAP kinase using the compound 1 was divided by the numerical value for the phosphorylated MAP kinase of the control whereupon the ratio of the MAP kinase using the compound 1 to the control and the ratio of the phosphorylated kinase using the compound 1 to the control were determined.
After that, the resulting ratio of the phosphorylated MAP kinase to the control was divided by the resulting ratio of the MAP kinase to the control to determine the ratio of the phosphorylated MAP kinase to the MAP kinase (cf. Table 5). In Table 5, “MAPK” means a MAP kinase and “pMAPK” means a phosphorylated MAP kinase. “10”, “30”, “100” and “300” in Table 5 show the examples where 10 μg/ml, 30 μg/ml, 100 μg/ml and 300 μg/ml of the compound 1 were added.
MAP kinase and phosphorylated MAP kinase were measured for the compound 6 ((E)-2-(diethylamino)ethyl dec-2-enoate) and the compound 13 ((E)-2-(2-(diethylamino)ethoxy)ethyl dec-2-enoate) by the same method as in Test Example 1.
Each of the compounds 6 and 13 was dissolved in 0.1% DMSO to adjust to the concentration of 250 μg/ml. With regard to the control, 0.1% DMSO was added. With regard to the concentration of the resulting band of the gel subjected to electrophoresis, its intensity was calculated by the same method as in Test Example 1 using Image J (K. K. Bioarts) and the ratio of the phosphorylated MAP kinase to the control was divided by the resulting ratio of the MAP kinase to the control whereupon the ratio of the phosphorylated MAP kinase to the MAP kinase was determined (cf. Table 6).
With regard to the compound of the present invention, its activation for MAP kinase was measured by the same manner as in Test Example 1.
Each compound was dissolved in 0.1% DMSO to adjust to the concentrations of 30 μg/ml, 60 μg/ml, 125 μg/ml and 250 μg/ml. […]

PC12 cells = assay: Evaluation using PC12 cells; immunostaining method for MAPK phosphorylation; type: cell-based; conditions: 30 minutes
Procedure: PC12 cells were stimulated using the compound of the present invention and the phosphorylation of MAPK was evaluated by means of immunostaining of the cells. The specific operation procedure is as follows.
A cover glass was placed on a 24-well plate followed by coating with poly-L-lysine. PC12 cells were seeded in a cell density of 50,000 cells/well. (The amount of the medium was 400 μL) On the first day after seeding the cells, the medium was exchanged to DMEM containing 1% fetal bovine serum (FBS) and 0.06% L-glutamine.
The compound which was previously diluted with DMSO was dissolved in 100 μl of medium. After 12 to 16 hours from the medium exchange, 100 μl out of 400 μl of the medium was removed from each well and, in place of that, 100 μl of a medium containing the compound was added.
After 30 minutes from the addition, fixation was conducted using 4% paraformaldehyde (PFA) for 10 minutes. The fixed cells were washed with a Tris-buffered saline (TBS) and a TBS containing 0.3% Triton X was added thereto followed by incubating at 37° C. for 30 minutes. This was washed with a TBS and blocked with a TBS containing 3% skim milk for 30 minutes (at room temperature).
This was washed with a TBS for one time and a primary antibody (anti-phospho-p42/44 MAPK antibody; cell signalings; #9102 being diluted with TBS to an extent of 1,000-fold) was added thereto followed by subjecting to the reaction at 4° C. for one night. The primary antibody was removed and washed with a TBS for three times. After that, the secondary antibody (Alexa 488 goat anti-rabbit antibody; Invitrogen: being diluted to an extent of 1,000-fold using a TBS containing 1% Block Ace) was added thereto and the reaction was conducted at room temperature for 3 hours. The secondary antibody was removed and, after washing with a TBS, fixation was conducted with 4% PFA for 1 hour.
This was washed with a TBS, Hoechst (diluted with a TBS to an extent of 2000-fold) was added thereto and nuclear staining was conducted. This was washed and mounted.
Taking the photographic pictures and counting the positive cells were conducted as follows. An all-in-one microscope (manufactured by Keyence) was used, exposing time for pMAPK (green) was made 1/2.8 s, the place was appropriately decided in a Hoechst-stained image and the pictures were taken. Four pictures per one glass sheet were taken.
Photoshop (Adobe) was used and the cells having above a certain luminance were judged to be positive. All cells were labeled using Hoechst 33342 manufactured by Invitrogen and the rate of pMAPK-positive cells in Hoechst-positive cells was calculated. (cf. Table 7)

[1] = system: paclitaxel-induced peripheral nerve disorder rats; assay: von Frey test in paclitaxel-induced peripheral nerve disorder rats; type: in vivo; conditions: Rattus norvegicus, ip; single intraperitoneal dose of 300 μ/kg; higher of the thresholds after 1 hour and 5 hours; normal threshold 15; read-out: Recovery rate of 50% reaction threshold value (%)
Procedure: The effect of the compound of the present invention was tested for a peripheral nerve disorder which is a side effect induced by the administration of paclitaxel (an anti-cancer agent) such as hyperesthesia including allodynia (severe pain induced by such tactile stimuli which usually cause no pain). The compound of the present invention was intraperitoneally administered to rats as a test drug to conduct a von Frey test.
Male SD rats of six weeks age (one group comprising six rats) were used as experimental animals and paclitaxel (2 mg/kg) was intraperitoneally administered every other day for four times in total to prepare paclitaxel-induced peripheral nerve disorder rats. During 18 and 25 days or during 20 to 27 days after initiation of paclitaxel administration, the test drug was intraperitoneally administered in a single dose of […] and the following von Frey test was conducted.
The rats of the above (1) were placed in a transparent acrylic cage with a wire-meshed floor and habituated for about three minutes and the 50% reaction threshold values to the mechanical stimulus of right hind limb were measured before administration of the test drug and after 1, 5 and 24 hours from initiation of the administration.
The measurement was conducted using von Frey filaments (manufactured by North Coast Medical Inc.) in accordance with the methods of Chaplan, et al. (Journal of Neuroscience Methods, vol. 53, no. 1, pages 55 to 63, 1994) and Dixon, et al. (Annual Review of Pharmacology and Toxicology, vol. 20, pages 441 to 462, 1980). […] The case where the rat escaped at the instance of removing the filament was also called positive. When the positive reaction was noted, stimulus was conducted similarly using a filament of one rank weaker while, when no reaction was noted, stimulus was conducted similarly using a filament of one rank stronger and the point when the reaction changed from negative to positive or from positive to negative was called the first two reactions. After that, stimulus was conducted for continuous four times by the same up-down method. A 50% reaction threshold value to the mechanical stimulus was measured using the reaction to the six stimuli in total and then (mean value)±(standard error) for each group was calculated. Incidentally, when stimulus reached by that of 15.0 g without positive reaction or, when positive reaction continued to 0.4 g, then 15.0 g or 0.25 g was adopted as each threshold value, respectively. With regard to the higher 50% reaction threshold value between the 50% threshold values after 1 hour and 5 hours from administration of a test drug, a recovery rate (%) of the 50% reaction threshold value was calculated by the following expression in which 15 was adopted as the normal threshold value. Recovery rate (%) of 50% reaction threshold value=[(50% reaction threshold value after 1 hour or 5 hours from administration of test drug)−(50% reaction threshold value before administration of test drug)]/[(Normal threshold value)−(50% reaction threshold value before administration of test drug)]

Row | SMILES | Ratio of pMAPK to MAPK (MAP kinase; 30 μg/mL) | Ratio of pMAPK to MAPK (MAP kinase; 60 μg/mL) | Ratio of pMAPK to MAPK (MAP kinase; 125 μg/mL) | Rate of pMAPK-positive cells (%) (PC12 cells; 62.5 μg/mL) | Rate of pMAPK-positive cells (%) (PC12 cells; 125 μg/mL) | Rate of pMAPK-positive cells (%) (PC12 cells; 250 μg/mL) | Rate of pMAPK-positive cells (%) (PC12 cells; 500 μg/mL) | pMAPK/MAPK/Control (MAP kinase; 250 μg/ml, Test Example 2, control = 1.00) | inhibition in vivo at 0.3 mg/kg [1] | Ratio of pMAPK to MAPK (MAP kinase; 250 μg/mL)
1 | CCCCCCC/C=C/C(=O)OCCCCN(C)C [Compound 4, (E)-4-(dimethylamino)butyl dec-2-enoate] | 2.2 | 3.2 | 20.6 | 12% | 27% | 64% | 81% |  |  | 
2 | CCCCCCC/C=C/C(=O)OCCOCCN(CC)CC [Compound 13, (E)-2-(2-(diethylamino)ethoxy)ethyl dec-2-enoate] | 2.6 | 3.1 | 1.3 | 35% | 35% | 52% |  | 1.46 |  | 
3 | CCCCCCC/C=C/C(=O)N(C)CCN(C)C [Compound 42, (E)-N-(2-(dimethylamino)ethyl)-N-methyl dec-2-enamide] |  |  |  | 6% | 7% | 27% |  |  | 48.7% | 
4 | CCCCCCC/C=C/C(=O)N(CC)CCN(C)C [Compound 43, (E)-N-(2-(dimethylamino)ethyl)-N-ethyl dec-2-enamide] |  |  |  | 20% | 26% | 49% |  |  | 40.3% | 
5 | CCCCCCC/C=C/C(=O)N(CC)CCN(CC)CC [Compound 44, (E)-N-(2-(diethylamino)ethyl)-N-ethyl dec-2-enamide] |  |  |  | 17% | 7% | 18% |  |  | 62.6% | 
6 | CCCCCCC/C=C/C(=O)N(CCN(C)C)CCN(C)C [Compound 45, (E)-N,N-bis(2-(dimethylamino)ethyl) dec-2-enamide] |  |  |  | 34% | 67% | 50% |  |  | 37% | 
7 | CCCCCCC/C=C/C(=O)N(CCN(CC)CC)CCN(CC)CC [Compound 46, (E)-N,N-bis(2-(diethylamino)ethyl) dec-2-enamide] |  |  |  | 22% | 13% | 32% |  |  | 19.9% | 
8 | CCCCCCC/C=C/C(=O)N(CCCN(C)C)CCCN(C)C [Compound 47, (E)-N,N-bis(3-(dimethylamino)propyl) dec-2-enamide] |  |  |  | 17% | 33% | 23% |  |  | 37.4% | 
9 | CCCCCCC/C=C/C(=O)SCCN(CC)CC [Compound 56, (E)-S-2-(diethylamino)ethyl dec-2-enethioate] |  | 5.0 | 7.4 |  |  |  |  |  | 60.5% | 5.7
